The target in data set [1] is T1, RAF1 with HSP90β and CDC37 (Homo sapiens, UniProt P08238+Q16543).
T1 construct: host or cells: E. coli for HSP90β and CDC37
In words: HSP90β/CDC37 heterocomplex in vitro kinase assay with RAF1. Type of data set: biochemical. The following applies: purified recombinant RAF1, HSP90β and CDC37. As for the experimental part: HEK293T cells were transfected with 1 of 420 different protein kinases, treated with 10 μM KBU2046 (N=5 replicates) or vehicle control (N=5) for three days, and LUMIER assays performed. The N=17 kinases that gave significant findings (Student's t-test <0.05) in the same direction in each of two separate experiments are depicted. Each separate treatment and kinase condition in each of two separate experiments was conducted in replicates of N=5. […] FIGS. 6c and 6d show the results of the wound healing assay. PC3 cells were transfected with siRNA targeting RAF1 (si-Raf1) or non-targeting siRNA (si-control), treated with KBU2046 or vehicle as above, and RAF1 protein measured by Western blot (c) and effects upon wound healing measured (d). […] Purified recombinant HSP90β, CDC37, and RAF1 were combined with KBU2046, as indicated, incubated in an in vitro kinase assay for the indicated times, and Western blot for RAF1-Ser^338 phosphorylation performed. FIGS. 6f and 6g show the effect on HSP90β/CDC37 heterocomplex formation and function in vitro. Purified recombinant HSP90β, CDC37, RAF1, SGK3 or MAP3K6 were combined and treated with KBU2046 or vehicle control, as indicated, incubated in an in vitro kinase assay for the indicated times, and Western blot performed, as denoted. Experiments were repeated at separate times at least once, with similar results. […]

For data set [2], the system named is human cord blood CD34+ stem cells. Briefly: Hematopoietic stem cell colony formation assay. Format: cell-based. Particulars: colonies at 14 days. The text has this: FIG. 1a is a schematic flow of probe synthesis and development strategy. […] Values are mean±SEM of a single experiment in replicates of N=4, with similar findings in multiple separate experiments (also N=4). […] Values are mean±SEM of a single experiment in replicates of N=24, with similar findings in a separate experiment (also N=24). *Denotes Student's t test P value <0.05, compared to controls. […] Values are mean±SEM from N>2 separate experiments, each in replicates of N=3. […] Values are the mean±SD number of total, CFU-GM, CFU-GEMM or BFU-E colonies at 14 days after treatment with KBU2046, from a single experiment in replicates of N=2. […] Values are the mean±SD of a single experiment, with similar results seen in a separate experiment, both in replicates of N=2.
Hematopoietic Stem Cell Colony Formation Assay. Fourteen-day colony formation assays were conducted as described (Bergan, R. et al., Blood 88, 731-41 (1996)), using human cord blood CD34+ stem cells (AllCells Inc.), using MethoCultExpress™ colony growth media (StemCell Technologies Inc.), performed in replicates of N=2.

Data set [3] concerns panel of 284 kinases. In words: KinaseProfiler radiometric assay platform (Millipore). Format: biochemical. Particulars: competition with ATP. The text has this: Kinase assay system #3. KinaseProfiler™ and PhosphataseProfiler™ assay platforms (Millipore). This platform is radiometric-based (considered gold standard). It measures competition with respect to ATP for kinases and substrate protein for phosphatases. Most proteins were expressed via an insect-based system, and it evaluates a panel of 284 kinases and 20 phosphatases. […] Important negative findings include: MKK4, MKK6, p38 MAPK, MAPKAPK2, RAF1, ERK, MEK1, JNK1, 2 and 3, and numerous other MAPK cascade-associated kinases.

The target of data set [4] is T2, client protein binding to CDC37/HSP90β heterocomplexes (Homo sapiens, UniProt P08238+Q16543).
T2 construct: expressed in transfected cells; host or cells: HEK293T
Briefly: Modified LUMIER assay. Format: cell-based. Here is the method:
(§1) HEK293T cells were transfected with 1 of 420 different protein kinases, treated with 10 μM KBU2046 (N=5 replicates) or vehicle control (N=5) for three days, and LUMIER assays performed. The N=17 kinases that gave significant findings (Student's t-test <0.05) in the same direction in each of two separate experiments are depicted. Each separate treatment and kinase condition in each of two separate experiments was conducted in replicates of N=5. […] FIGS. 6c and 6d show the results of the wound healing assay. PC3 cells were transfected with siRNA targeting RAF1 (si-Raf1) or non-targeting siRNA (si-control), treated with KBU2046 or vehicle as above, and RAF1 protein measured by Western blot (c) and effects upon wound healing measured (d). […] Purified recombinant HSP90β, CDC37, and RAF1 were combined with KBU2046, as indicated, incubated in an in vitro kinase assay for the indicated times, and Western blot for RAF1-Ser^338 phosphorylation performed. FIGS. 6f and 6g show the effect on HSP90β/CDC37 heterocomplex formation and function in vitro. Purified recombinant HSP90β, CDC37, RAF1, SGK3 or MAP3K6 were combined and treated with KBU2046 or vehicle control, as indicated, incubated in an in vitro kinase assay for the indicated times, and Western blot performed, as denoted. Experiments were repeated at separate times at least once, with similar results.
(§2) To examine whether this is associated with an altered signature of bound client kinase proteins, a modified LUMIER assay (Taipale, M. et al., Cell 150, 987-1001 (2012)) was performed to detect KBU2046-induced changes in client protein binding to CDC37/HSP90β heterocomplexes in intact cells. […] These findings are in contrast to classical inhibitors of HSP90 function which have been shown, through this same assay, to affect the binding of the majority client kinase proteins (Taipale, M. et al., Cell 150, 987-1001 (2012)).
(§3) LUMIER assay. The LUMIER assay was performed as described (Taipale, M. et al., Cell 150, 987-1001 (2012)).
(§4) Experiments had N=5 vehicle treated control plus N=5 KBU2046 treated separate wells of cells. Those yielding a t-test p value <0.05 in experiment #1, or those whose values were at or below baseline, were repeated in experiment #2. […] Of 420 kinase proteins tested, 17 (4%) met these criteria (FIG. 6a). For these 17 kinases, the experiment was repeated except that HEK293T cells were treated with TGFβ for the last 24 hrs of the 3 day incubation (FIG. 6b).

In data set [5] the test system is client protein binding to CDC37/HSP90β heterocomplexes. Briefly: Modified LUMIER assay. Format: cell-based. As for the experimental part: as §1, §2, §3, §4

Molecules are shown by their SMILES.

T2 sequence (P08238 2-724): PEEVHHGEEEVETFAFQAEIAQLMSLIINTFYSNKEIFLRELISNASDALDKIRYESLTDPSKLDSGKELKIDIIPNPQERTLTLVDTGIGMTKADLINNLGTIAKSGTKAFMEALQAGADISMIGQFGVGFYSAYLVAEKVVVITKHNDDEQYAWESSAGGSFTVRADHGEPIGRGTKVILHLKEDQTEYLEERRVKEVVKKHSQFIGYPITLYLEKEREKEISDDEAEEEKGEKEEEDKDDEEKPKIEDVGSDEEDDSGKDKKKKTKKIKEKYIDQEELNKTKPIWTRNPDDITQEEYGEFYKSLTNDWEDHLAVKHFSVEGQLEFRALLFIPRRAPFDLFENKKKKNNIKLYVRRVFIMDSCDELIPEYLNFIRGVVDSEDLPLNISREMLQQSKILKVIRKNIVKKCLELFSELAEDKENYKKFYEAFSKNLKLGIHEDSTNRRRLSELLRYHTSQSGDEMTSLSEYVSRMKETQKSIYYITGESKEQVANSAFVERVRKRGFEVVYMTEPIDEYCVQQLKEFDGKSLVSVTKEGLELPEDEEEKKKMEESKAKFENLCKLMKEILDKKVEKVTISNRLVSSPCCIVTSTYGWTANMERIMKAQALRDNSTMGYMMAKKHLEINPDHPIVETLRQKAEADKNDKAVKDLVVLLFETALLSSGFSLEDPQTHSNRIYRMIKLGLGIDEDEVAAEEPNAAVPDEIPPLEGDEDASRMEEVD
T2 sequence (Q16543 whole entry): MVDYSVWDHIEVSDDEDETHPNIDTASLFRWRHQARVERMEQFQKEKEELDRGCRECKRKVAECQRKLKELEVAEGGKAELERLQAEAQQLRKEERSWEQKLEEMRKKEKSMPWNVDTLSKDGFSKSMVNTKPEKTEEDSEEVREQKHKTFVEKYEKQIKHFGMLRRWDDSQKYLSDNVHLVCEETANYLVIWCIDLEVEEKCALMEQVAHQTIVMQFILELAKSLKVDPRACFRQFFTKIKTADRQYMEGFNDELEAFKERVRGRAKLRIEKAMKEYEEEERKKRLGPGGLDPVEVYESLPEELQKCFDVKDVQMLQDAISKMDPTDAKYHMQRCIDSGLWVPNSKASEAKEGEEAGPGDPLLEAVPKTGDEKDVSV
T1 sequence (P08238 whole entry): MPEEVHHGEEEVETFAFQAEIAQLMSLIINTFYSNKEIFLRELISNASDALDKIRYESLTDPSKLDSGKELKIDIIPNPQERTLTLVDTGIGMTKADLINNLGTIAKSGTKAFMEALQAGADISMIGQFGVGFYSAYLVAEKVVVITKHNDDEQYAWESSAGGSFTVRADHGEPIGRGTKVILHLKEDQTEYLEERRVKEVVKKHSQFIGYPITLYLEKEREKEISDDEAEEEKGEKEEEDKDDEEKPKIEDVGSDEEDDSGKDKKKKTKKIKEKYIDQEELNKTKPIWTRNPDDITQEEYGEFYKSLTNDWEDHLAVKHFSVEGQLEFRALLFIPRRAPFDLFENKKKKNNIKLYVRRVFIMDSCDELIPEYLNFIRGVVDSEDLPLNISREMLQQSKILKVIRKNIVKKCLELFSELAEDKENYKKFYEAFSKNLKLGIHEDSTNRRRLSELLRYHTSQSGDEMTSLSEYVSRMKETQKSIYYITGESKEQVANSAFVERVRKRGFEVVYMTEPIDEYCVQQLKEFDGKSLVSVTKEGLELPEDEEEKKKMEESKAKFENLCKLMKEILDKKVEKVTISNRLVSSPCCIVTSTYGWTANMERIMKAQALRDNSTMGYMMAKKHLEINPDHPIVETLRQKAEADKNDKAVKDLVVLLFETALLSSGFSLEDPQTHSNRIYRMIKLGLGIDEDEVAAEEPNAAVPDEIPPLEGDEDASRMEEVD
T1 sequence (Q16543 whole entry): as the sequence (Q16543 whole entry) above

Turning to `O=C1c2ccccc2OCC1c1ccc(F)cc1` (racemic) [KBU2046, (±)-3(4-fluorophenyl)chroman-4-one], the “phosphorylation of RAF1 Ser338 activation motif” value in data set [1] is given as “decreased phosphorylation of RAF1's Ser338 activation motif”. The “toxicity to human bone marrow stem cells” value in data set [2] was “not toxic”. For the same compound, in data set [3], the “inhibition of kinase activity” value is listed as “no evidence that KBU2046 inhibits kinase activity”. Besides, in data set [4] (TGFβ treated cells), the “RAF1 binding to complexes” value is “decreased binding”, the “RIPKI binding to complexes” value is given as “decreased” and the “SGK3 binding to complexes” value is “increased”. For the same compound, the “MAP3K6 binding to complexes” value in data set [4] (intact cells) is recorded as “increases MAP3K6 binding to complexes”. Further, in data set [5] (10 μM, 3 days), the “number of kinases with decreased binding” value was 7 and the “number of kinases with increased binding” value came to 10. The “share of kinases whose binding was significantly changed” value in data set [5] (of 420 kinase proteins) is reported as 4%. For the same compound, the “number of kinases whose binding was significantly changed” value in data set [5] (of 420 kinase proteins, 10 μM, 3 days) is reported as 17.
